Source: PubChem BioAssay (NCI)
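Five compound concentrations were applied to cells in 96-well plates for 48 hours; endpoints were derived by simple linear interpolation of the resulting dose-response curve. The concentration for 50% growth inhibition is given as GI50. TGI denotes the concentration required for complete inhibition of growth.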 Where a SMILES comes first, the peptide text is derived from it. [ ]: non-standard residue; d: D form. The star is where a group is joined. X28 = COC1=CC(=O)N(C(=O)[C@@H](O*)C(C)C)[C@H]1Cc1ccccc1; Bn2Val = CC(C)[C@@H](C(=O)*)N(Cc1ccccc1)Cc1ccccc1; NMeV = CN[C@H](C(=O)O)C(C)C; dNMeA = CN[C@H](C)C(=O)O

What was measured:
Test in all cases: NCI tumour cell line growth inhibition, 48 h
OVCAR-8 ovarian = tested on: OVCAR-8 ovarian
HL-60(TB) leukemia = tested on: HL-60(TB) leukemia
NCI-H522 lung = tested on: NCI-H522 lung
NCI-H460 lung = tested on: NCI-H460 lung
NCI/ADR-RES ovarian = tested on: NCI/ADR-RES ovarian
EKVX NSCLC = tested on: EKVX NSCLC
COLO 205 colon = tested on: COLO 205 colon
UO-31 renal = tested on: UO-31 renal
BT-549 breast = tested on: BT-549 breast
A498 renal = tested on: A498 renal

| Structure (SMILES) | TGI (OVCAR-8 ovarian) | TGI (HL-60(TB) leukemia) | TGI (NCI-H522 lung) | TGI (NCI-H460 lung) | TGI (NCI/ADR-RES ovarian) | TGI (EKVX NSCLC) | TGI (COLO 205 colon) | TGI (UO-31 renal) | TGI (BT-549 breast) | TGI (A498 renal) | GI50 (NCI/ADR-RES ovarian) | GI50 (A498 renal) | GI50 (EKVX NSCLC) | GI50 (UO-31 renal) | GI50 (BT-549 breast) |
| --- | --- | --- | --- | --- | --- | --- | --- | --- | --- | --- | --- | --- | --- | --- | --- |
| CCCCC(=C=C(C)CO)C1CCCN1C(=O)OC(C)(C)C (configuration not stated) | 37.3 µM | 32.5 µM | 29 µM | 31.8 µM | 42.5 µM | 44 µM | 32.9 µM | 37.7 µM | 31.8 µM | – | – | – | – | – | – |
| COC1=CC(=O)N(C(=O)[C@@H](OC(=O)[C@@H](C)N(C)C(=O)[C@@H]2CCCN2C(=O)[C@H](C(C)C)N(C)C(=O)[C@@H](NC(=O)[C@H](C(C)C)N(Cc2ccccc2)Cc2ccccc2)C(C)C)C(C)C)[C@H]1Cc1ccccc1 (Bn2Val-V[NMeV]P[dNMeA]-X28) | > 100 µM | – | > 100 µM | > 100 µM | > 100 µM | > 100 µM | > 100 µM | 22.3 µM | > 100 µM | > 100 µM | – | – | – | – | – |
| CCCCOc1c(C(=O)O)cc(Br)cc1C(=O)O | > 100 µM | – | > 100 µM | > 100 µM | > 100 µM | > 100 µM | > 100 µM | > 100 µM | > 100 µM | > 100 µM | – | – | – | – | – |
| O=C(O)CN1CCCC(Cc2c[nH]c3ccccc23)C1 (configuration not stated) | > 100 µM | – | – | – | > 100 µM | > 100 µM | > 100 µM | > 100 µM | > 100 µM | – | – | – | – | – | – |
| N/C(=N\S(=O)(=O)c1ccc(-c2ccccn2)s1)Nc1ccc(Cl)cc1 | 37.6 µM | – | 24.4 µM | 34.8 µM | 43.5 µM | 26 µM | 35.9 µM | 34.9 µM | 32.6 µM | 25.8 µM | – | – | – | – | – |
| CNC(=O)c1cc2nc3ccccc3c(=O)n2c2ccccc12 | > 10 µM | > 10 µM | > 10 µM | – | > 10 µM | > 10 µM | > 10 µM | > 10 µM | > 10 µM | > 10 µM | – | – | – | – | – |
| CC(=O)NNC(=S)/N=C\c1c(O)c2ccccc2oc1=O | > 100 µM | > 100 µM | > 100 µM | > 100 µM | > 100 µM | – | > 100 µM | > 100 µM | > 100 µM | > 100 µM | – | – | – | – | – |
| C[N+](C)(C)CCOC(=O)/C=C/c1cnc[nH]1 | > 500 µM | > 500 µM | > 500 µM | > 500 µM | > 500 µM | > 500 µM | > 500 µM | > 500 µM | – | > 500 µM | – | – | – | – | – |
| COc1ccc(OC)c(NC2=NCCO2)c1 | > 100 µM | > 100 µM | > 100 µM | > 100 µM | > 100 µM | > 100 µM | > 100 µM | > 100 µM | – | > 100 µM | – | – | – | – | – |
| Cc1nc(N)sc1C(=O)Nc1ncn[nH]1 | > 100 µM | 49.9 µM | > 100 µM | > 100 µM | > 100 µM | > 100 µM | > 100 µM | > 100 µM | > 100 µM | – | – | – | – | – | – |
| CCn1c(-c2ccc(OC)cc2)nc2c1C(=O)c1ccccc1C2=O | > 100 µM | > 100 µM | > 100 µM | > 100 µM | > 100 µM | > 100 µM | > 100 µM | – | > 100 µM | – | – | – | – | – | – |
| Cn1cc(-c2nc(-c3c[nH]c4ccncc34)cs2)c2ccccc21 | – | – | – | – | 4.02 µM | 3.36 µM | – | 2.69 µM | 35.5 µM | 3.3 µM | 1.99 µM | 1.86 µM | 1.64 µM | 1.38 µM | 9 µM |
| O=C(/C=C/c1ccc2c(c1)OCO2)NCCc1ccco1 | > 100 µM | – | 79.7 µM | > 100 µM | > 100 µM | > 100 µM | > 100 µM | > 100 µM | > 100 µM | – | – | – | – | – | – |
| COc1cccc2c1C(=O)c1c(O)c3c(c(O)c1C2=O)C[C@@](O)(C(=O)CN1CCOCC1)C[C@@H]3OC1CC(N)C(O)C(C)O1 (some centres not stated) | 89.5 µM | 5.19 µM | 15.4 µM | > 69.9 µM | > 100 µM | 55.9 µM | 24.1 µM | 59.6 µM | – | 31.1 µM | – | – | – | – | – |
| O=C(OCC1CCCN2CCCCC12)c1cccnc1 (configuration not stated) | > 100 µM | > 100 µM | – | > 100 µM | > 100 µM | > 100 µM | > 100 µM | > 100 µM | > 100 µM | > 100 µM | – | – | – | – | – |
| Cc1ccc(S(=O)(=O)NC(=O)NCCc2ccc(O)c(O)c2)cc1 | > 100 µM | > 100 µM | > 100 µM | > 100 µM | > 100 µM | > 100 µM | > 100 µM | > 100 µM | – | > 100 µM | – | – | – | – | – |
| COc1cc(OCc2nc3cc(C(F)(F)F)ccc3nc2-c2ccccc2)cc(OC)c1OC | > 100 µM | > 100 µM | – | > 100 µM | > 100 µM | > 100 µM | > 100 µM | > 100 µM | > 100 µM | > 100 µM | – | – | – | – | – |
| COC(=O)c1ccccc1NC(=S)NN(C)C | > 100 µM | > 100 µM | > 100 µM | – | > 100 µM | > 100 µM | > 100 µM | > 100 µM | > 100 µM | > 100 µM | – | – | – | – | – |
| COC(=O)CCCC1(CCCC(=O)OC)CCCCCCCCC(CCCC(=O)OC)(CCCC(=O)OC)C(=O)C1=O | > 100 µM | 12.2 µM | 5.38 µM | > 100 µM | > 100 µM | > 100 µM | > 100 µM | 0.3 µM | – | > 100 µM | – | – | – | – | – |
| CCCc1n[nH]c(=O)n1N1C(=O)C=CC1=O | – | – | > 100 µM | > 100 µM | – | > 100 µM | > 100 µM | – | > 100 µM | > 100 µM | – | – | – | – | – |
| c1ccc2[nH]c3c(N=NC4=NCCN4)c4ccccc4c-3nc2c1 | 9.39 µM | > 100 µM | 17.3 µM | 7.81 µM | 20.1 µM | 33.3 µM | – | – | 41.9 µM | – | – | – | – | – | – |
| C[C@@H](NC(=O)[C@@H]1C[C@]1(C)CO)c1cccc2ccccc12 | > 100 µM | – | – | > 100 µM | > 100 µM | > 100 µM | > 100 µM | > 100 µM | > 100 µM | > 100 µM | – | – | – | – | – |
| CCOC(=O)CCC(NC(=O)c1ccc(Nc2nc3cc(C(F)(F)F)ccc3nc2C(=O)OCC)cc1)C(=O)OCC (configuration not stated) | 24.6 µM | > 100 µM | 42.2 µM | 33.9 µM | 29.7 µM | 38 µM | > 100 µM | 24.6 µM | 29.8 µM | – | – | – | – | – | – |
